Reference: the supplement of paper PMC11208160

Assay: recombinant UMI read abundance after kanamycin selection (control-corrected) (log10(CPM+1)); higher = more efficient recombination; extreme values may be limits of the assay; sequences stand for … in AGTGCAGAGAAAATCGGCCAGTTTTCTCTGCCTGCAGTCCGCATGCCGTGGGACCCCTTGGGTTCTAACCTGTTGCCTAGATTTATGCAGCGGACTGCCTTTCTCCCAAAGTGATAAACCGG…AGGTTGGTTTCACT; site = the 11-nt donor
Summary of the method: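 Sequenced counts of recombinant UMIs were turned into CPM, averaged across replicates and scaled with control-derived factors. The reported figure is log10(CPM+1). Those UMIs, each 12 nt long, tagged donor and donor-binding-loop pairs on a plasmid with a promoterless kanamycin gene, screened as a pool in Escherichia coli with IPTG (0.07 mM) plus kanamycin or without selection.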
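Further: IS621 bridge recombinase in Escherichia coli cells against a fixed T5 target plasmid.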

| Sequence | recombinant UMI read abundance (log10) |
| --- | --- |
| CCAGATGCATGGACCGGTTTTCCCGGTAATCCGTATTTGAT (site CCAGATGCTAT) | 1.26 |
| CCAGATGCATGGACCGGTTTTCCCGGTAATCCGTATTTGAT (site CCAGCTGCTAT) | 0.00516 |
| CCAGATGCATGGACCGGTTTTCCCGGTAATCCGTATTTGAT (site CCAGGTGCTAT) | 0.261 |
| CCAGATGCATGGACCGGTTTTCCCGGTAATCCGTATTTGAT (site CCAGTTGCTAT) | 0.00471 |
| CCAGCCCCATGGACCGGTTTTCCCGGTAATCCGTATTTGCC (site CCAGCCCCTGG) | 0.451 |
| CCAGGATCATGGACCGGTTTTCCCGGTAATCCGTATTTGCA (site ACAGTATCTTG) | 0 |
| CCAGGATCATGGACCGGTTTTCCCGGTAATCCGTATTTGCA (site CCAGGATCTTG) | 0.424 |
| CCAGGTGCATGGACCGGTTTTCCCGGTAATCCGTATTTGAT (site ACAGGTGCTAT) | 0.0184 |
| CCAGGTGCATGGACCGGTTTTCCCGGTAATCCGTATTTGAT (site CAAGGTGCTAT) | 0.441 |
| CCAGGTGCATGGACCGGTTTTCCCGGTAATCCGTATTTGAT (site CCAAGTGCTAT) | 1.24 |
| CCAGGTGCATGGACCGGTTTTCCCGGTAATCCGTATTTGAT (site CCACGTGCTAT) | 0.497 |
| CCAGGTGCATGGACCGGTTTTCCCGGTAATCCGTATTTGAT (site CCAGATGCTAT) | 1.74 |
| CCAGGTGCATGGACCGGTTTTCCCGGTAATCCGTATTTGAT (site CCAGCTGCTAT) | 0.00488 |
| CCAGGTGCATGGACCGGTTTTCCCGGTAATCCGTATTTGAT (site CCAGGAGCTAT) | 0.984 |
| CCAGGTGCATGGACCGGTTTTCCCGGTAATCCGTATTTGAT (site CCAGGCGCTAT) | 0.436 |
| CCAGGTGCATGGACCGGTTTTCCCGGTAATCCGTATTTGAT (site CCAGGGGCTAT) | 1.32 |
| CCAGGTGCATGGACCGGTTTTCCCGGTAATCCGTATTTGAT (site CCAGGTACTAT) | 0.835 |
| CCAGGTGCATGGACCGGTTTTCCCGGTAATCCGTATTTGAT (site CCAGGTCCTAT) | 0 |
| CCAGGTGCATGGACCGGTTTTCCCGGTAATCCGTATTTGAT (site CCAGGTGCTAA) | 0.0192 |
| CCAGGTGCATGGACCGGTTTTCCCGGTAATCCGTATTTGAT (site CCAGGTGCTAC) | 0.227 |
| CCAGGTGCATGGACCGGTTTTCCCGGTAATCCGTATTTGAT (site CCAGGTGCTAG) | 0 |
| CCAGGTGCATGGACCGGTTTTCCCGGTAATCCGTATTTGAT (site CCAGGTGCTAT) | 1.32 |
| CCAGGTGCATGGACCGGTTTTCCCGGTAATCCGTATTTGAT (site CCAGGTGCTCT) | 0.00956 |
| CCAGGTGCATGGACCGGTTTTCCCGGTAATCCGTATTTGAT (site CCAGGTGCTGT) | 0 |
| CCAGGTGCATGGACCGGTTTTCCCGGTAATCCGTATTTGAT (site CCAGGTGCTTT) | 0.206 |

| Sequence | recombinant UMI read abundance (log10) |
| --- | --- |
| CCAGGTGCATGGACCGGTTTTCCCGGTAATCCGTATTTGAT (site CCAGGTTCTAT) | 0.204 |
| CCAGGTGCATGGACCGGTTTTCCCGGTAATCCGTATTTGAT (site CCAGTTGCTAT) | 0.00491 |
| CCAGGTGCATGGACCGGTTTTCCCGGTAATCCGTATTTGAT (site CCATGTGCTAT) | 0.018 |
| CCAGGTGCATGGACCGGTTTTCCCGGTAATCCGTATTTGAT (site CCCGGTGCTAT) | 0.433 |
| CCAGGTGCATGGACCGGTTTTCCCGGTAATCCGTATTTGAT (site CCGGGTGCTAT) | 1.47 |
| CCAGGTGCATGGACCGGTTTTCCCGGTAATCCGTATTTGAT (site CCTGGTGCTAT) | 0 |
| CCAGGTGCATGGACCGGTTTTCCCGGTAATCCGTATTTGAT (site CGAGGTGCTAT) | 0.0036 |
| CCAGGTGCATGGACCGGTTTTCCCGGTAATCCGTATTTGAT (site CTAGGTGCTAT) | 0.629 |
| CCAGGTGCATGGACCGGTTTTCCCGGTAATCCGTATTTGAT (site GCAGGTGCTAT) | 0.00654 |
| CCAGGTGCATGGACCGGTTTTCCCGGTAATCCGTATTTGAT (site TCAGGTGCTAT) | 0.0184 |
| CCATCATCATGGACCGGTTTTCCCGGTAATCCGTATTTGCT (site CAATCATCTAG) | 0 |
| CCATCATCATGGACCGGTTTTCCCGGTAATCCGTATTTGCT (site CCATCATCTAG) | 0 |
| CCATCATCATGGACCGGTTTTCCCGGTAATCCGTATTTGCT (site CGATCATCTAG) | 0 |
| CCATCATCATGGACCGGTTTTCCCGGTAATCCGTATTTGCT (site CTATCATCTAG) | 0.0047 |
| CCATCATCATGGACCGGTTTTCCCGGTAATCCGTATTTGTT (site CCATCATCTAA) | 0.00419 |
| CCATCATCATGGACCGGTTTTCCCGGTAATCCGTATTTGTT (site CGATCATCTAG) | 0 |
| CCATCGGCATGGACCGGTTTTCCCGGTAATCCGTATTTGTG (site CCATCGGCTCA) | 1.73 |
| CCATCTTCATGGACCGGTTTTCCCGGTAATCCGTATTTGCT (site CCATCTTCTAG) | 0.0559 |
| CCATCTTCATGGACCGGTTTTCCCGGTAATCCGTATTTGCT (site CGATCATCTAG) | 0 |
| CCATGACCATGGACCGGTTTTCCCGGTAATCCGTATTTGGA (site CCATGACCTTC) | 0.023 |
| CCATGCTCATGGACCGGTTTTCCCGGTAATCCGTATTTGAA (site CAATGCTCTTT) | 0.0121 |
| CCATGCTCATGGACCGGTTTTCCCGGTAATCCGTATTTGAA (site CCATGCTCTTT) | 0.703 |
| CCATGCTCATGGACCGGTTTTCCCGGTAATCCGTATTTGAA (site CGATGCTCTTT) | 0.0134 |
| CCATGCTCATGGACCGGTTTTCCCGGTAATCCGTATTTGAA (site CTATGCTCTTT) | 0.015 |
| CCATGTGCATGGACCGGTTTTCCCGGTAATCCGTATTTGAT (site CCAAGTGCTAT) | 0.00273 |

| Sequence | recombinant UMI read abundance (log10) |
| --- | --- |
| CCATGTGCATGGACCGGTTTTCCCGGTAATCCGTATTTGAT (site CCACGTGCTAT) | 0.215 |
| CCATGTGCATGGACCGGTTTTCCCGGTAATCCGTATTTGAT (site CCAGGTGCTAT) | 0.00344 |
| CCATGTGCATGGACCGGTTTTCCCGGTAATCCGTATTTGAT (site CCATGTGCTAT) | 1.09 |
| CCATTAGCATGGACCGGTTTTCCCGGTAATCCGTATTTGTG (site CCATTAGCTCA) | 0.183 |
| CCATTAGCATGGACCGGTTTTCCCGGTAATCCGTATTTGTG (site CCCTTAGCTCA) | 0.00634 |
| CCATTAGCATGGACCGGTTTTCCCGGTAATCCGTATTTGTG (site CCGTTAGCTCA) | 0.0308 |
| CCATTAGCATGGACCGGTTTTCCCGGTAATCCGTATTTGTG (site CCTTTAGCTCA) | 0.0119 |
| CCATTCCCATGGACCGGTTTTCCCGGTAATCCGTATTTGAC (site CCATTCCCTGT) | 0 |
| CCATTTGCATGGACCGGTTTTCCCGGTAATCCGTATTTGGC (site CCATTTGCTGC) | 0 |
| CCCAAAGCATGGACCGGTTTTCCCGGTAATCCGTATTTGAT (site CCAAAAGCTAT) | 0 |
| CCCAAAGCATGGACCGGTTTTCCCGGTAATCCGTATTTGAT (site CCCAAAGCTAT) | 0.774 |
| CCCAAAGCATGGACCGGTTTTCCCGGTAATCCGTATTTGAT (site CCGAAAGCTAT) | 0 |
| CCCAAAGCATGGACCGGTTTTCCCGGTAATCCGTATTTGAT (site CCTAAAGCTAT) | 0.00406 |
| CCCAATACATGGACCGGTTTTCCCGGTAATCCGTATTTGGC (site CCAAATACTGC) | 0 |
| CCCAATACATGGACCGGTTTTCCCGGTAATCCGTATTTGGC (site CCCAATACTGC) | 0 |
| CCCAATACATGGACCGGTTTTCCCGGTAATCCGTATTTGGC (site CCGAATACTGC) | 0 |
| CCCAATACATGGACCGGTTTTCCCGGTAATCCGTATTTGGC (site CCTAATACTGC) | 0 |
| CCCACATCATGGACCGGTTTTCCCGGTAATCCGTATTTGTC (site CCCAAATCTGA) | 0 |
| CCCACATCATGGACCGGTTTTCCCGGTAATCCGTATTTGTC (site CCCACATCTGA) | 0.453 |
| CCCACATCATGGACCGGTTTTCCCGGTAATCCGTATTTGTC (site CCCAGATCTGA) | 0 |
| CCCACATCATGGACCGGTTTTCCCGGTAATCCGTATTTGTC (site CCCATATCTGA) | 0 |
| CCCATAGCATGGACCGGTTTTCCCGGTAATCCGTATTTGTC (site CCCATAACTGA) | 0.433 |
| CCCATAGCATGGACCGGTTTTCCCGGTAATCCGTATTTGTC (site CCCATACCTGA) | 0 |
| CCCATAGCATGGACCGGTTTTCCCGGTAATCCGTATTTGTC (site CCCATAGCTGA) | 1.56 |
| CCCATAGCATGGACCGGTTTTCCCGGTAATCCGTATTTGTC (site CCCATATCTGA) | 0 |
